In patent US10959986B2, “Inhibitors of indoleamine 2,3-dioxygenase and methods of their use” (BRISTOL-MYERS SQUIBB COMPANY, priority 2018, dated 2021):
pIC50: −log10 of the molar value. Where two headings read alike, the source gives them in different places.

Target: T1, indoleamine 2,3-dioxygenase (IDO) (Homo sapiens, UniProt P14902)
T1 construct: media containing IFNγ (#285-IF/CF, R&D Systems) at a final concentration of 25 ng/mL; endogenous in cells; host or cells: HeLa (ATCC CCL-2), induced with IFN-gamma
Assay: HeLa cell-based indoleamine 2,3-dioxygenase (IDO) assay
Details: HeLa cells with IFNγ 25 ng/mL, 48 hour incubation, kynurenine production
Procedure: Assessment of Inhibitor Activity in HeLa Cell-Based Indoleamine 2,3-Dioxygenase (IDO) Assay.
HeLa (ATCCR CCL-2) cells were obtained from the ATCC® and cultured in Dulbecco's Modified Eagle Medium supplemented with 4.5 g/L glucose, […] L-glutamine and […] (#10-013-CV, Corning), 2 mM L-alanyl-L-glutamine dipeptide (#35050-061, Gibco), 100U/mL penicillin, 100 µg/mL streptomycin (#SV30010, HyClone) and 10% fetal bovine serum (#SH30071.03 HyClone). Cells were maintained in a humidified incubator at 37° C. in 5% CO2.
IDO activity was assessed as a function of kynurenine production as follows: HeLa cells were seeded in a 96-well culture plate at a density of 5,000 cells/well and allowed to equilibrate overnight. After 24 hours, the media was aspirated and replaced with media containing IFNγ (#285-IF/CF, R&D Systems) at a final concentration of 25 ng/mL. A serial dilution of each test compound was added to the cells in a total volume of 200 μL of culture medium. After a further 48 hour incubation, 170 μL of supernatant was transferred from each well to a fresh 96-well plate. 12.1 μL of 6. IN trichloroacetic acid (#T0699, Sigma-Aldrich) was added to each well and mixed, followed by incubation at 65° C. for 20 minutes to hydrolyze N-formylkynurenine, the product of indoleamine 2,3-dioxygenase, to kynurenine. The reaction mixture was then centrifuged for 10 mins at 500×g to sediment the precipitate. 100 μL of the supernatant was transferred from each well to a fresh 96-well plate. 100 μl of 2% (w/v) p-dimethylaminobenzaldehyde (#15647-7, Sigma-Aldrich) in acetic acid (#A6283, Sigma-Aldrich) was added to each well mixed and incubated at room temperature for 20 mins. Kynurenine concentrations were determined by measuring absorbance at 480 nm and calibrating against an L-kynurenine (#K8625, Sigma-Aldrich) standard curve using a SPECTRAMAX® M2e microplate reader (Molecular Devices). The percentage activity at each inhibitor concentration was determined and IC50 values assessed using nonlinear regression.

[1] = read-out: IDO Hela IC50 potency class (A < 50, B < 250, C < 2000)

T1 sequence (P14902 whole entry): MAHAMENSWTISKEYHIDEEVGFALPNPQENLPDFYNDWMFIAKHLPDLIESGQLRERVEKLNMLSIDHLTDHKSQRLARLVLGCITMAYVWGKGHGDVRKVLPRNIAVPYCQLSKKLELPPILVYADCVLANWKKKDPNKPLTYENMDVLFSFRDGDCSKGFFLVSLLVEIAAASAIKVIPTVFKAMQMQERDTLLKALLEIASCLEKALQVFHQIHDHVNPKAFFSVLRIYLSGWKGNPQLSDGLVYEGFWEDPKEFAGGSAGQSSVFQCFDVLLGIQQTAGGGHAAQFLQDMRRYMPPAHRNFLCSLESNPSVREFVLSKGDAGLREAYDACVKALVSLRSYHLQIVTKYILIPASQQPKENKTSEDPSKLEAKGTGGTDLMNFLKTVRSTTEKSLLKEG

Row | SMILES | pIC50 (read-out: IDO Hela IC50) | pIC50 [1]
1 | CC[C@H](CC(=O)O)c1ccc(-c2cnn(C)c2)c(Nc2ccc(Cl)cc2F)c1 (single isomer, unassigned) [Example 2] | 8.00 | –
2 | CC[C@H](CC(=O)O)c1ccc(-c2cnn(C)c2)c(Nc2ccc(C#N)cc2)c1 (single isomer, unassigned) [Example 5] | 6.96 | –
3 | CC[C@H](CC(=O)O)c1ccc(-c2cnn(C)c2)c(Nc2cccc(Cl)c2)c1 (single isomer, unassigned) [Example 7] | ≤ 6.00 | 5.70 to 6.60
4 | CC[C@H](CC(=O)O)c1ccc(-c2cnn(C)c2)c(Nc2cccc(F)c2)c1 (single isomer, unassigned) [Example 8] | 6.42 | –
5 | CC[C@H](CC(=O)O)c1ccc(-c2cnn(C)c2)c(Nc2ccc(Cl)c(F)c2)c1 (single isomer, unassigned) [Example 9] | 7.70 | –
6 | CC[C@H](CC(=O)O)c1ccc(-c2cnn(C)c2)c(Nc2ccc(C)cc2)c1 (single isomer, unassigned) [Example 10] | 7.40 | –
7 | CC[C@H](CC(=O)O)c1ccc(-c2cnn(C)c2)c(Nc2cccnc2)c1 (single isomer, unassigned) [Example 11] | ≤ 6.00 | 5.70 to 6.60
8 | CC[C@H](CC(=O)O)c1ccc(-c2cnn(C)c2)c(Nc2cnc(C)nc2)c1 (single isomer, unassigned) [Example 12] | ≤ 6.00 | 5.70 to 6.60
9 | CCc1ncc(Nc2cc([C@H](CC)CC(=O)O)ccc2-c2cnn(C)c2)cn1 (single isomer, unassigned) [Example 13] | ≤ 6.00 | 5.70 to 6.60
10 | CC[C@H](CC(=O)O)c1ccc(-c2cnn(C)c2)c(Nc2ccccn2)c1 (single isomer, unassigned) [Example 15] | ≤ 6.00 | 5.70 to 6.60
11 | CC[C@H](CC(=O)O)c1ccc(-c2cnn(C)c2)c(Nc2ccc(C#N)cn2)c1 (single isomer, unassigned) [Example 16] | ≤ 6.00 | 5.70 to 6.60
12 | CC[C@H](CC(=O)O)c1ccc(-c2cn[nH]c2)c(Nc2ccc(Cl)cc2)c1 (single isomer, unassigned) [Example 18] | 7.15 | –
13 | CC[C@H](CC(=O)O)c1ccc(-c2nccs2)c(Nc2ccc(Cl)cc2)c1 (single isomer, unassigned) [Example 21] | ≤ 6.00 | 5.70 to 6.60
14 | CC[C@H](CC(=O)O)c1ccc(-c2cnn(C)c2)c(NC(=O)Nc2ccc(Cl)cc2F)c1 (single isomer, unassigned) [Example 23] | ≤ 6.00 | 5.70 to 6.60
15 | CCOc1ncc(Nc2cc([C@@H](CC)CC(=O)O)ccc2C2CCN(C(=O)OC(C)(C)C)CC2)cn1 (single isomer, unassigned) [Example 26] | 7.70 | –
16 | CC[C@H](CC(=O)O)c1ccc(C2CCN(C(=O)OC(C)(C)C)CC2)c(Nc2cnc(C)nc2)c1 (single isomer, unassigned) [Example 27] | 6.09 | –
17 | CC[C@@H](CC(=O)O)c1ccc(C2CCN(C(=O)OC(C)(C)C)CC2)c(Nc2cnc(C)nc2)c1 (single isomer, unassigned) [Example 28] | 6.12 | –
18 | CCc1ncc(Nc2cc([C@H](CC)CC(=O)O)ccc2C2CCN(C(=O)OC(C)(C)C)CC2)cn1 (single isomer, unassigned) [Example 29] | 6.89 | –
19 | CC[C@@H](CC(=O)O)c1ccc(C2CCN(C(=O)OC(C)(C)C)CC2)c(Nc2ccc(C#N)cc2)c1 (single isomer, unassigned) [Example 32] | – | > 7.30
20 | COC[C@@H](CC(=O)O)c1ccc(-c2cnn(C)c2)c(Nc2ccc(C#N)cc2)c1 (single isomer, unassigned) [Example 33, 3-(3-((4-cyanophenyl)amino)-4-(1-methyl-1H-pyrazol-4-yl)phenyl)-4-methoxybutanoic Acid] | ≤ 6.00 | 5.70 to 6.60
21 | COC[C@@H](CC(=O)O)c1ccc(-c2ccc3c(c2)OCO3)c(Nc2ccc(C#N)cc2)c1 (single isomer, unassigned) [Example 34] | 6.49 | –
22 | COC[C@H](CC(=O)O)c1ccc(-c2ccc3c(c2)CCO3)c(Nc2ccc(C#N)cc2)c1 (single isomer, unassigned) [Example 40] | 7.05 | –
23 | COC[C@H](CC(=O)O)c1ccc(-c2cncnc2)c(Nc2ccc(C#N)cc2)c1 (single isomer, unassigned) [Example 43] | ≤ 6.00 | 5.70 to 6.60
24 | COC[C@H](CC(=O)O)c1ccc(-c2cnn(Cc3ccccc3)c2)c(Nc2ccc(C#N)cc2)c1 (single isomer, unassigned) [Example 44] | 6.35 | –

Results, then the compound that gave them:

Row | pIC50 (read-out: IDO Hela IC50) | pIC50 [1] | SMILES
25 | 7.40 | – | CC[C@H](CC(=O)O)c1ccc(-c2cnn(C)c2)c(Nc2ccc(F)cc2)c1 (single isomer, unassigned) [Example 3]
26 | 8.00 | – | CC[C@H](CC(=O)O)c1ccc(-c2cnn(C)c2)c(Nc2ccc(Cl)cc2)c1 (single isomer, unassigned) [Example 4]
27 | 6.33 | – | CC[C@H](CC(=O)O)c1ccc(-c2cnn(C)c2)c(Nc2ccc(Cl)cn2)c1 (single isomer, unassigned) [Example 6]
28 | 7.40 | – | CC[C@H](CC(=O)O)c1ccc(-c2cnn(C)c2)c(Nc2ccc(C(F)(F)F)cc2)c1 (single isomer, unassigned) [Example 14]
29 | 8.00 | – | CC[C@H](CC(=O)O)c1ccc(-c2c(C)noc2C)c(Nc2ccc(Cl)cc2)c1 (single isomer, unassigned) [Example 17]
30 | ≤ 6.00 | 5.70 to 6.60 | CC[C@H](CC(=O)O)c1ccc(-c2nc(C)cs2)c(Nc2ccc(Cl)cc2)c1 (single isomer, unassigned) [Example 19]
31 | 7.52 | – | CC[C@H](CC(=O)O)c1ccc(-c2nc(-c3ccccc3)cs2)c(Nc2ccc(Cl)cc2)c1 (single isomer, unassigned) [Example 20]
32 | 7.52 | – | CC[C@H](CC(=O)O)c1ccc(-c2nnc(C)s2)c(Nc2ccc(Cl)cc2)c1 (single isomer, unassigned) [Example 22]
33 | ≤ 6.00 | 5.70 to 6.60 | CC[C@H](CC(=O)O)c1ccc(-c2cnn(C(C)C)c2)c(NC(=O)Nc2ccc(Cl)cc2F)c1 (single isomer, unassigned) [Example 24]
34 | 7.70 | – | CCOc1ncc(Nc2cc([C@H](CC)CC(=O)O)ccc2C2CCN(C(=O)OC(C)(C)C)CC2)cn1 (single isomer, unassigned) [Example 25]
35 | – | > 7.30 | CC[C@H](CC(=O)O)c1ccc(C2CCN(C(=O)OC(C)(C)C)CC2)c(Nc2ccc(C#N)cc2)c1 (single isomer, unassigned) [Example 30]
36 | 7.70 | – | CCc1ncc(Nc2cc([C@@H](CC)CC(=O)O)ccc2C2CCN(C(=O)OC(C)(C)C)CC2)cn1 (single isomer, unassigned) [Example 31]
37 | 8.00 | – | COC[C@@H](CC(=O)O)c1ccc(-c2ccoc2)c(Nc2ccc(C#N)cc2)c1 (single isomer, unassigned) [Example 35]
38 | 7.52 | – | COC[C@@H](CC(=O)O)c1ccc(-c2cnn(Cc3ccc(OC)cc3)c2)c(Nc2ccc(C#N)cc2)c1 (single isomer, unassigned) [Example 36]
39 | 7.30 | – | COC[C@H](CC(=O)O)c1ccc(-c2ccc3c(c2)OCO3)c(Nc2ccc(C#N)cc2)c1 (single isomer, unassigned) [Example 38]
40 | 7.70 | – | COC[C@H](CC(=O)O)c1ccc(-c2ccoc2)c(Nc2ccc(C#N)cc2)c1 (single isomer, unassigned) [Example 39]
